# Data as given in patent publication US20230128889A1, “REL/RELA/SPOT SMALL MOLECULES MODULATORS AND SCREENING METHODS” (priority 2020, published 2023).
# Substitutions are numbered along the chain they refer to. In names and notes the source's numbering stands. Where two headings read alike, the source gives them in different places.
# B1: R249A D272A: RelTt with substitutions R249A and D272A (protein)
# chain: MVGADLGLWNRLEPALAYLAPEERAKVREAYRFAEEAHRGQLRRSGEPYITHPVAVAEILAGLQMDADTVAAGLLHDTVEDCGVAPEELERRFGPTVRRIVEGETKVSKLYKLANLEGEERRAEDLRQMFIAMAEDVRIIIVKLADRLHNLRTLEHMPPEKQKRIAQETLEIYAPLAHRLGMGQLKWELEDLSFRYLHPEAFASLSARIQATQEARERLIQKAIHLLQETLARDELLQSQLQGFEVTGAPKHLYSIWKKMEREGKTLEQIYALLAVRVILDPKPAPTRESQALREKQVCYHVLGLVHALWQPIPGRVKDYIAVPKPNGYQSLHTTVIALEGLPLEVQIRTREMHRVAEYGIAAHWLYKEGLTDPEEVKRRVSWLKSIQEWQKEFSSSREFVEAVTKDLLGGRVFVFTPKGRIINLPKGATPVDFAYHIHTEVGHHMVGAKVNGRIVPLSYELQNGEIVEILTSKNAHPSKGWLEFAKTRSAKSKIRQYFRAQERQETLERGQHLLERYLKRRGLPKPTDSQLEEAAKRLSLPPSPEELYLALALNRLTPRQVAEKLYPKALLKPEKPKPQVRNEWGIRLEQDLQAPIRLASCCEPMKGDPILGFVTRGRGVTVHRADCPNLRRLLQGPEADRVIGAYWEGVGGKVVVLEVLAQDRAGLLRDVMQVVAEAGKSALGSETRVLGPLARIRLRLAVQDGEEERILQAVQKVSGVKEARWA
# B2: R249A R277A Y329A: RelTt with substitutions R249A, R277A and Y329A (protein)
# chain: B1 chain with A272D, R277A, Y329A
# B3: R249A D272A Y329A: RelTt with substitutions R249A, D272A and Y329A (protein)
# chain: B1 chain with Y329A
# B4: R249A R277A: RelTt with substitutions R249A and R277A (protein)
# chain: B1 chain with A272D, R277A
# Legend:
# [1] = system: Rel hydrolase (HD); test: Inhibition of Rel hydrolase activity: decrease of radioactive (p)ppGpp spot on TLC; format: biochemical; conditions: radioactive (p)ppGpp incubated with enzyme, with vs without compound
# Description: (§1) As indicated above, the “Yes/No” in the 5th and 6th columns of TABLES A to F indicates whether there is, or respectively is not an inhibition of the synthetase (ST) and/or hydrolase (HD) activity. […] The action of a candidate compound is evaluated based on its effect on the production of (p)ppGpp. Therefore, in order to assess the potential influence of a candidate compound on synthesis activity, the enzyme was mixed with GDP or GTP and radioactive ATP to produce (p)ppGpp in absence or presence of the candidate compound. Subsequently, the reaction is developed by thin layer chromatography (TLC). In an alternative assay that enables determining the effect of a compound on the hydrolysis activity, radioactive (p)ppGpp is incubated with the enzyme and any decrease of the (p)ppGpp spot on TLC is evaluated when the assay is conducted in presence of the compound and compared to control conditions where no candidate compound is added during incubation.
# [2] = system: Rel synthetase (ST); test: Inhibition of Rel synthetase activity: (p)ppGpp production from GDP or GTP and radioactive ATP, TLC; format: biochemical; conditions: enzyme with GDP or GTP and radioactive ATP, absence or presence of compound
# Description: as §1
# [3] = biological target: RelTt^NTD (Thermus thermophilus, UniProt Q5SHL3); test: Isothermal Titration Calorimetry (ITC), titration into RelTt^NTD; format: binding, T. thermophilus
# Chain of RelTt^NTD (Q5SHL3 entry or part of it): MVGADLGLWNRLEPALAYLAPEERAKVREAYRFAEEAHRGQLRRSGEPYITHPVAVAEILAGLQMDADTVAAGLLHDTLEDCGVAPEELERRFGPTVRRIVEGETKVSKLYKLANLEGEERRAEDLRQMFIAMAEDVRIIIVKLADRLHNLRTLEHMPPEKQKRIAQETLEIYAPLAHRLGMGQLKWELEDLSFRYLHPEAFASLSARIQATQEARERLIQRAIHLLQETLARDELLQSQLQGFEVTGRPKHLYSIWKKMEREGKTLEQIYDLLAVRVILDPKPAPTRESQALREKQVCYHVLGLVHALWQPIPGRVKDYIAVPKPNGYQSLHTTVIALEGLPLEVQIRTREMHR
# Description: (§2) To directly address the sequential binding hypothesis, we monitored the binding of these nucleotides using Isothermal Titration Calorimetry (ITC). […] However, once the RelTt^NTD-GDP complex is formed, APCPP binds with an affinity of around 50 μM (FIG. 9h and Table 6). The incorporation of both GDP and APCPP is entropically driven (FIG. 11b and Table 6). In the case of the binding of GDP to the SYN-domain, the release of ordered water molecules from the GDP binding cleft is accompanied by the movement of α6-α7 that partially occludes the HD active center and an increase in the enzyme flexibility as observed in the crystal structure. All these structural changes are consistent with entropically driven binding events. […] In addition, it creates an ‘entropy reservoir’ that drives the binding of APCPP with the release of water molecules from the now exposed binding cleft. This supports the notion that GDP must ‘open’ the enzyme to reveal the ATP binding site, as predicted from the analysis of the crystallographic data.
# [4] = biological target: RelTt^NTD-GDP complex (Thermus thermophilus, UniProt Q5SHL3); test: ITC, titration into RelTt^NTD-GDP complex; format: binding, T. thermophilus
# Chain of RelTt^NTD-GDP complex (Q5SHL3 entry or part of it, one chain of several): as the sequence (Q5SHL3 entry or part of it) above
# Description: as §2
# [5] = biological target: RelTt^NTD-APCPP complex (Thermus thermophilus, UniProt Q5SHL3); test: ITC, titration into RelTt^NTD-APCPP complex; format: binding, T. thermophilus
# Chain of RelTt^NTD-APCPP complex (Q5SHL3 entry or part of it, one chain of several): as the sequence (Q5SHL3 entry or part of it) above
# Description: as §2
# [6] = system: full-length RelTt; test: ppGpp synthesis (synthase) activity of full-length RelTt and variants, 3H-labeled GDP; format: biochemical, T. thermophilus; set-up: Synthase activity, Substrate: GDP + ATP, RelTt + IC / Synthase activity, Substrate: GDP + ATP, RelTt + IC + tRNA^Val: unit not given here; conditions: 40° C.; for Synthase activity, Substrate: GDP + ATP, RelTt + IC + tRNA^Val: with 70S IC and deacylated tRNA^Val; for Synthase activity, Substrate: GDP + ATP, RelTt + IC: with T. thermophilus 70S IC
# Description: FIG. 1. Biochemical characterization of full-length RelTt. (a) Hydrolysis activity of 100 nM full-length RelTt was assayed in the presence of 0.5 mM 3H-labeled ppGpp substrate either at 4° C. or 40° C. Synthetic activity of 30 nM full-length RelTt was assayed at 40° C. in the presence of either 1 mM ATP (b) or 1 mM APPNP (c), as well 0.3 mM of 3H-labeled GDP and 0.1 mM ppGpp. As indicated on the figure, the reactions were supplemented with 120 nM T. thermophilus 70S IC(MV) added either alone or in combination with 2 μM deacylated E. coli tRNAVal. All experiments were performed in HEPES:Polymix buffer, pH 7.5, 5 mM Mg^2+, either in the presence (a) or absence (b and c) of 0.5 mM Mn^2+. Error bars represent Standard deviations of the turnover estimates by linear regression.
Molecule,HD (inhibition of the hydrolase activity) [1],ST (inhibition of the synthetase activity) [2],other results
O=C(Cc1ccc(Cl)cc1)Nc1ccc(-c2ccc(NC(=O)Cc3ccc(Cl)cc3)c(C(=O)O)c2)cc1C(=O)O [Compound 72],Yes,Yes,
CC(NC(=O)c1cc([N+](=O)[O-])c[nH]1)c1ccc2ccccc2c1 (stereo not shown) [Compound 23],Yes,Yes,
Cc1nc(N)ncc1C(=O)NCc1cccc(-c2nnn[nH]2)c1 [Compound 59],Yes,No,
O=C1Nc2ccccc2/C1=N/N=C/c1ccc(-c2ccccc2[N+](=O)[O-])o1 [Compound 41],Yes,Yes,
O=C1N/C(=N\N=C\c2cccc3ccccc23)SC1Cc1ccccc1[N+](=O)[O-] (stereo not shown) [Compound 24],Yes,Yes,
CC(C(=O)O)C(NC(=O)C(C)n1nnc(-c2ccccc2)n1)c1ccccc1 (stereo not shown) [Compound 61],Yes,No,
O=C(O)CNS(=O)(=O)c1ccc2c(c1)NC(=O)CS2 [Compound 3],Yes,No,
Nc1ncnc2c1ncn2[C@@H]1O[C@H](COP(=O)(O)CP(=O)(O)OP(=O)(O)O)[C@@H](O)[C@H]1O [APCPP],,,Kd [3]: does not bind; Kd [4]: 50.4 µM; ΔG [4]: -5.67 ± 0.07 kcal/mol; ΔH [4]: 1.8 ± 1 kcal/mol; −TΔS [4]: -7.5 ± 1 kcal/mol
O=C(Nc1nnn[nH]1)c1cc(-c2ccc3c(c2)CCO3)[nH]n1 [Compound 32],Yes,No,
Cc1nnc2ccc(N3CCN(C(=O)Nc4ccccc4[N+](=O)[O-])CC3)nn12 [Compound 56],Yes,No,
O=C(O)C[C@H](NC(=O)COc1ccc2nc3n(c(=O)c2c1)CCC3)C(=O)O [Compound 9],yes,no,
Cc1c(CC(=O)O)c(=O)oc2cc(O)cc(O)c12 [Compound 1],Yes,No,
Cc1c(Br)c([N+](=O)[O-])nn1CC(=O)Nc1ccc(Cl)cc1Cl [Compound 67],Yes,Yes,
O=C1Nc2ccccc2/C1=N\c1ccc(O)c([N+](=O)[O-])c1 [Compound 38],No,Yes,
Fc1cccc(-c2nnn(Cc3nnn[nH]3)n2)c1 [Compound 58],Yes,No,
O=c1oc2cc(OCc3nnn[nH]3)ccc2cc1-c1ccc2ccccc2c1 [Compound 21],Yes,Yes,
Nc1nc2c(ncn2[C@@H]2O[C@H](COP(=O)(O)OP(=O)(O)O)[C@@H](O)[C@H]2O)c(=O)[nH]1 [GDP],,,ΔG [3]: -6.12 ± 0.01 kcal/mol; ΔH [3]: 1.3 ± 1 kcal/mol; −TΔS [3]: -7.6 ± 1 kcal/mol; Kd ([3]; read-out: Kd): 23 µM; Kd [5]: 24.7 ± 0.9 µM; ΔG [5]: -6.1 ± 0.1 kcal/mol; ΔH [5]: 0.4 ± 1 kcal/mol; −TΔS [5]: -6.5 ± 1 kcal/mol
O=[N+]([O-])c1nn(Cc2cccc(-c3nc4c5cn[nH]c5ncn4n3)c2)cc1Cl [Compound 71],Yes,Yes,
O=[N+]([O-])c1ccccc1OCCn1nnc(-c2ccccc2)n1 [Compound 60],Yes,No,
O=C(O)CCC(=Cc1ccc(OCC(=O)O)cc1)c1nc2ccccc2s1 [Compound 44],Yes,Yes,
B1,,,"Synthase activity, Substrate: GDP + ATP, RelTt + IC + tRNA^Val [6]: 12.0 ± 2.0; Synthase activity, Substrate: GDP + ATP, RelTt + IC [6]: 8.5 ± 1.0"
B2,,,"Synthase activity, Substrate: GDP + ATP, RelTt + IC + tRNA^Val [6]: 5.4 ± 2.1; Synthase activity, Substrate: GDP + ATP, RelTt + IC [6]: 4.5 ± 2.3"
B3,,,"Synthase activity, Substrate: GDP + ATP, RelTt + IC + tRNA^Val [6]: 8.8 ± 0.69; Synthase activity, Substrate: GDP + ATP, RelTt + IC [6]: 10.9 ± 3.6"
B4,,,"Synthase activity, Substrate: GDP + ATP, RelTt ([6]; enzyme alone, triplicate): 2.6 ± 0.6; Synthase activity, Substrate: GDP + ATP, RelTt + IC + tRNA^Val [6]: 10.5 ± 1.8; Synthase activity, Substrate: GDP + ATP, RelTt + IC [6]: 8.6 ± 2"
